From ChEMBL document CHEMBL3603772, “Chemical Biology of Leucine-Rich Repeat Kinase 2 (LRRK2) Inhibitors” (J Med Chem, 2015) come the findings set out here.

The structures appear in SMILES notation. pEC50, pIC50: −log10 of the molar value.

The target in series [1] is Leucine-rich repeat serine/threonine-protein kinase 2 (Homo sapiens, UniProt Q5S007). The experiment in a line: Inhibition of LRRK2 (unknown origin).
In series [2] the target is Leucine-rich repeat serine/threonine-protein kinase 2 (Homo sapiens, UniProt Q5S007, G2019S). In words: Inhibition of LRRK2 G2019S mutant in human HEK293 cells assessed as phosphorylation at Ser935. Format: cell-based.
Chain of Leucine-rich repeat serine/threonine-protein kinase 2 (Homo sapiens, UniProt Q5S007, G2019S) (Q5S007 whole entry G2019S): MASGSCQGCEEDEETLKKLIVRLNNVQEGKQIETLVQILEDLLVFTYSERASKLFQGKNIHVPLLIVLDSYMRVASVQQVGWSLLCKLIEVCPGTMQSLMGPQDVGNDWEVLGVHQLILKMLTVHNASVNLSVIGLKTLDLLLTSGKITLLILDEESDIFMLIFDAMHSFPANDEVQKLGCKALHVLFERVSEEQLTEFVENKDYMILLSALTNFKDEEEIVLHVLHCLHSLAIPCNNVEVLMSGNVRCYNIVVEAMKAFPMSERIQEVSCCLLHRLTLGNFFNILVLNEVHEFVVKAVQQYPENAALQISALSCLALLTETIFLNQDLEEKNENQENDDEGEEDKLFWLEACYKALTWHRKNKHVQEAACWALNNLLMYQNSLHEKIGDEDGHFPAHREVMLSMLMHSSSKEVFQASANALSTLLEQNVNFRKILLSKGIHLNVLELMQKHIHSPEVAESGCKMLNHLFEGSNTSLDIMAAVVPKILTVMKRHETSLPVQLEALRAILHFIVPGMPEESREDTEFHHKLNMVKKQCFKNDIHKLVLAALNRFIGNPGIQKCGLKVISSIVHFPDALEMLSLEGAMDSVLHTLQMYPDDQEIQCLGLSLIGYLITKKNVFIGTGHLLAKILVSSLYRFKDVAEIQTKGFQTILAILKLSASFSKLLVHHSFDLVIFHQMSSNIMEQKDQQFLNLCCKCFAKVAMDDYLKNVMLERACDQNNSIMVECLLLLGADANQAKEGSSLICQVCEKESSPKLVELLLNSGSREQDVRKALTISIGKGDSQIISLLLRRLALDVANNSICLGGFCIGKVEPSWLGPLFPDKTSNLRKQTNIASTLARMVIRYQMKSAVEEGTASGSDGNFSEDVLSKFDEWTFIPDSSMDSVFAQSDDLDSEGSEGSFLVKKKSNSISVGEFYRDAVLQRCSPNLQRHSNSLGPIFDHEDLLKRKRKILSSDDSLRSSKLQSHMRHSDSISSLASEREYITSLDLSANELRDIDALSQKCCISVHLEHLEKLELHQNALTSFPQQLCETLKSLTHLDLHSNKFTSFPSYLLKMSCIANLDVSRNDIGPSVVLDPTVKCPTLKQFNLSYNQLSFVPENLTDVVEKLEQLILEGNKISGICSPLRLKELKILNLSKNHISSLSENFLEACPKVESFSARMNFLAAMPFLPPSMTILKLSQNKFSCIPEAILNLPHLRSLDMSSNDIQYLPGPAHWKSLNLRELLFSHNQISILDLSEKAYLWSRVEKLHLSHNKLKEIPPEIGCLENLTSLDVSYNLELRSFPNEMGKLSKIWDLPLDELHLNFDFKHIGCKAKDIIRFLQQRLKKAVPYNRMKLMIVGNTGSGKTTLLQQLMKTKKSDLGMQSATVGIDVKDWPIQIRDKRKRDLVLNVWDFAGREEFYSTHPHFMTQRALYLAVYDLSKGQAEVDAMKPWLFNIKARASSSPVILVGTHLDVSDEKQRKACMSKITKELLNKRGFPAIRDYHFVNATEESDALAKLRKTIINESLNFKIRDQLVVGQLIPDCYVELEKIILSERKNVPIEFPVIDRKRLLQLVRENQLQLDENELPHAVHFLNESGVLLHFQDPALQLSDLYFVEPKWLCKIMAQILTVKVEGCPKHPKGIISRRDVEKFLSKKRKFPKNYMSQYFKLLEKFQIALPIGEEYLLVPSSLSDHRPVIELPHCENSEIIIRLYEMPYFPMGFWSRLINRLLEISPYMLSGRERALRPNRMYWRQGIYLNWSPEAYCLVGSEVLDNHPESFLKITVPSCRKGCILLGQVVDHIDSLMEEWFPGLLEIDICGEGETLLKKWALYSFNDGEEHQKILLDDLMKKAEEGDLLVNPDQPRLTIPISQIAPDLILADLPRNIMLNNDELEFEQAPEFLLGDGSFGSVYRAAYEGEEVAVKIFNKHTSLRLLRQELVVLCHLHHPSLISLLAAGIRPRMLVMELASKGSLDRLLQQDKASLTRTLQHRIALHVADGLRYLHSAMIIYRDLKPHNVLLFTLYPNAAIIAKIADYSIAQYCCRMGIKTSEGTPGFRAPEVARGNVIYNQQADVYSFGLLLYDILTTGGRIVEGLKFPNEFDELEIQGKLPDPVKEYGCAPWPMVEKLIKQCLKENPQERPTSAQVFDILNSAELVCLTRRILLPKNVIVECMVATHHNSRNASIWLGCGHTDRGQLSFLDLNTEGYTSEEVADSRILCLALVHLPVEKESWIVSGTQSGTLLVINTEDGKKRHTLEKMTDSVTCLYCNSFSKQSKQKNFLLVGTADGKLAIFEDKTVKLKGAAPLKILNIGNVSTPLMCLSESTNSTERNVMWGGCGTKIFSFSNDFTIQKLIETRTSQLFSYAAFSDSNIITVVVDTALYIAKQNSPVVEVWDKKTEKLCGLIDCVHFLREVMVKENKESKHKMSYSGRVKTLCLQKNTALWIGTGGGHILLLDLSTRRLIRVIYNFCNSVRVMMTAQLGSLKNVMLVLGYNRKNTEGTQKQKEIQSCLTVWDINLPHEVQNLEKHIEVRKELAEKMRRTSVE
The nature of series [3]: Clearance in mouse at 1 mg/kg, iv. The conditions noted are these: in vivo. The format is ADME, organism-based.
A short description of series [4]: Inhibition of LRRK2 G2019S mutant-induced neuronal toxicity in rat cortical neurons.
In another series the test system is Brain. The experiment in a line: Druguptake in mouse brain at 1 mg/kg, iv. The format is ADME, organism-based. Particulars: in vivo.

Chain of Leucine-rich repeat serine/threonine-protein kinase 2 (Homo sapiens, UniProt Q5S007) (Q5S007 whole entry): as the sequence (Q5S007 whole entry G2019S) above, with S2019G counted along it

The pIC50 is −log10 of the IC50, conventionally taken in molar units. With `COc1cc(C(=O)N2CCC(N3CCN(C)CC3)CC2)ccc1Nc1ncc2c(n1)N(C)c1ccccc1C(=O)N2C`, the negative-log IC50 (pIC50) in series [1] was 8.22.
On to `CN1CCN(c2ccc(OCc3ccccc3)c(C(=O)Nc3cccnc3)c2)CC1`, for which the pIC50 in series [1] is 8.22; in series [2] it was 7.03.
What is called clearance is the rate of elimination divided by the concentration. The low end stands for a low capacity for elimination, the high end for a high capacity for elimination. In general, pEC50 refers to −log10 of the EC50, conventionally taken in molar units. Low readings indicate a large EC50, high ones a small EC50. `COc1cc(N2CCOCC2)ccc1Nc1ncc(F)c(Nc2ccccc2NS(C)(=O)=O)n1`: the pIC50 in series [1] is 8.15. In addition, the clearance in series [3] was 2.3 mL/min/kg. This compound also had a pEC50 in series [4] of 7.00. In the series on Brain, this compound gave a Drug uptake of 4%.
